Test results taken from patent publication US6913930B2, “Analytical method and apparatus therefor involving continuous titration” (Glaxo Wellcome Inc., priority 1997, dated 2005).
“And” between values parts separate entries of the source, which are not always exact repeats. Identical values can stand only once. Marks after values point to notes of the source that are not given here.

Experiments:
[1] = pKa by continuous titration, apparatus of FIG. 8, optimised buffers, TFA or 1st derivative data processing; conditions: for pKa (1st Deriv.): first derivative method
physchem [2] = experiment: physchem
[3] = test solutes; potentiometric titration on Sirius PCA 101 instrument in 0.15 KCl
Method: (§1) The absorbance changes at 240 nm, 265 nm, 290 nm and 315 nm were recorded and the peak maxima of the 1st derivative plots determined. […] Compounds of known pKa were also determined as test solutes.

[4] = pKa by continuous titration, linear pH gradient, apparatus of FIG. 2, 1st derivative peak time read from standards calibration curve; type: physicochemical; conditions: from standards calibration curve via time to peak maximum of 1st derivative, gradient over 4 minutes, FIG. 2 apparatus
Method: The following pKa determination experiment was performed on this apparatus.
The two buffers have a common component to which an acidic component is added to form buffer A and a basic component is added to form buffer B. The buffers were made up as follows:
The sample solution was kept constant at 20%. The HP1050 pump was used again with buffer B introduced via channel B and buffer A via channel C. The flow rate of the test mixture stream from the mixer to the detector was 1 cm^3 min^−1.
The calibration results are set out below: Time to peak maximum is from the start of the instrument cycle (when the autosampler first goes into a new sample container).

physchem [5] = experiment: physchem; remark: listed apart in the source
Method: as §1

[6] = cited from earlier work
[7] = Albert & Serjeant, 1984; corrected for an ionic strength of 0.15 M; cited from earlier work
[8] = run with calibration curve pH=−0.022×time+12.66

With NCCCn1ccnc1 [1-(3-Aminopropyl)imidazole, 1-(3-Aminopropyl) imidazole] the “pKa (1st Deriv.)” value [1, 8] was 5.81 ± 0.40 and the pKa (physchem [2]) was 5.73 ± 0.08.

With Oc1ccccc1Cl [2-Cl phenol] the “Known pKa” value [3] was 8.24 and the “pKa Derived” value [4] was 8.15 and 8.16.

For Nc1cccc(C(=O)O)c1 [3-Aminobenzoic acid], the pKa (physchem [2]) was 3.39 ± 0.08.

For Oc1cccc(Cl)c1 [3-Cl phenol], the “Known pKa” value [3] was 8.81 and the “pKa Derived” value [4] was 8.79 and 8.78.

With N#Cc1ccc(O)cc1 [4-CN phenol] the “Known pKa” value [3] was 7.7 and the “pKa Derived” value [4] was 7.62 and 7.58.

In the case of Oc1ccc(Cl)cc1 [4-Cl phenol, 4-Chlorophenol], the pKa ([4]; buffered linear pH gradient (apparatus of FIG. 2), read-out: pKa Derived) is reported as 9.14, the “pKa Derived” value [4] is reported as 9.13 and the “pKa (1st Deriv.)” value ([1]; run with calibration curve pH=−0.021×time+12.49) is reported as 9.16 ± 0.08. For the same compound, the “pKa (1st Deriv.)” value [1, 8] was 9.25 ± 0.07, the “pKa (TFA)” value ([1]; run with calibration curve pH=−0.022×time+12.66, target factor analysis) was 9.04 ± 0.01 and the pKa (physchem [2]) was 9.03 ± 0.03. It also gave a pKa (physchem [5]; 0.15 KCl solution) of 9.14.

In the case of O=[N+]([O-])c1ccc(O)cc1 [4-NO2phenol, p-nitrophenol], the “pKa (Standard Curve)” value ([6]; standards STD1, STD2 of Example 3) is given as 6.869, the “pKa (calibration standards)” value ([6]; standards for calibration curves of the FIG. 8 runs) is given as 6.869 and the pKa (physchem [5]; 0.15 KCl solution) is given as 6.89.

In the case of NCc1ccccc1 [Benzylamine], the pKa (physchem [2]) is given as 9.23 ± 0.1 and the “pKa (lit. data)” value [7] is given as 9.34^a.

For O=C1OC(c2ccc(O)cc2)(c2ccc(O)cc2)c2ccccc21 [Phenolphthalein], the pKa (physchem [2]) was 8.84 ± 0.05.

For O=C(O)Cc1ccccc1 [Phenylacetic acid], the pKa (physchem [2]) is given as 4.34 ± 0.01 and the “pKa (lit. data)” value [7] is given as 4.07^b.

Compound NCCc1ccccc1 [Phenylethylamine] has a pKa (physchem [2]) of 9.64 ± 0.07.

For NCCc1c[nH]c2ccc(O)cc12 [Serotonin], the “pKa (1st Deriv.)” value [1, 8] is listed as 10.03 ± 0.08, the pKa (physchem [2]) is listed as 10.09 ± 0.03 and the “pKa (lit. data)” value [7] is listed as 9.80^a and 10.04^a.

With CC(C)NCC(O)c1ccc(NS(C)(=O)=O)cc1 (centres unmarked) [Sotalol] the pKa (physchem [2]) was 7.96 ± 0.03.

For O=C(O)/C=C/c1ccccc1 [Trans-cinnamic acid], the pKa (physchem [2]) is given as 4.15 ± 0.01 and the “pKa (lit. data)” value [7] is given as 4.20^b.

O=C(O)C/C=C/c1ccccc1 [Trans-styrylacetic acid] gave a pKa (physchem [2]) of 4.57 ± 0.05.

With NCCc1c[nH]c2ccccc12 [Tryptamine] the “pKa (1st Deriv.)” value [1, 8] was 10.05 ± 0.10 and the pKa (physchem [2]) was 9.67 ± 0.03.

Compound O=C(O)c1ccccc1C(=O)O [phthalate 1, potassium hydrogen phthalate] has a pKa (physchem [5]) of 4.82.
